Results reported in the NIST ThermoML archive (doi:10.1021/je100377k).
Numbers after ± are expanded uncertainties.

Conditions: 101.33 kPa, Liquid

CCCC[n+]1ccc(C)cc1.O=S(=O)([N-]S(=O)(=O)C(F)(F)F)C(F)(F)F
Conditions	mass density [kg/m3]	viscosity [mPa·s]
278.15 K	1431 ± 1.8	169.9 ± 11
283.15 K	1426.3 ± 1.8	124.19 ± 6.2
288.15 K	1421.6 ± 1.8	93.27 ± 3.2
293.15 K	1416.9 ± 1.8	71.72 ± 1.5
298.15 K	1412.2 ± 1.7	56.33 ± 0.6
303.15 K	1407.6 ± 1.7	45.07 ± 0.66
308.15 K	1402.9 ± 1.7	36.67 ± 0.54
313.15 K	1398.3 ± 1.7	30.28 ± 0.44
318.15 K	1393.6 ± 1.7	25.34 ± 0.37
323.15 K	1389 ± 1.7	21.45 ± 0.32
328.15 K	1384.4 ± 1.7	18.36 ± 0.27
333.15 K	1379.8 ± 1.7	15.87 ± 0.24
338.15 K	1375.3 ± 1.7	13.82 ± 0.21
343.15 K	1370.7 ± 1.7	12.13 ± 0.18
348.15 K	1366.2 ± 1.7	10.72 ± 0.16
353.15 K	1361.7 ± 1.6	9.54 ± 0.15
358.15 K	1357.2 ± 1.6	8.531 ± 0.13
363.15 K	1352.7 ± 1.6	7.673 ± 0.12

CCCC[n+]1cccc(C)c1.O=S(=O)([N-]S(=O)(=O)C(F)(F)F)C(F)(F)F
Conditions	mass density [kg/m3]
278.15 K	1431.2 ± 1.8
283.15 K	1426.6 ± 1.8
288.15 K	1421.9 ± 1.8
293.15 K	1417.4 ± 1.8
298.15 K	1412.8 ± 1.7
303.15 K	1408.2 ± 1.7
308.15 K	1403.6 ± 1.7
313.15 K	1399 ± 1.7
318.15 K	1394.5 ± 1.7
323.15 K	1389.9 ± 1.7
328.15 K	1385.4 ± 1.7
333.15 K	1380.9 ± 1.7
338.15 K	1376.4 ± 1.7
343.15 K	1371.9 ± 1.7
348.15 K	1367.4 ± 1.7
353.15 K	1362.9 ± 1.6
358.15 K	1358.5 ± 1.6
363.15 K	1354.1 ± 1.6

Capillary tube (Ostwald / Ubbelohde) method
Conditions	viscosity [mPa·s]
278.15 K	195.43 ± 4.6
283.15 K	142.73 ± 2.7
288.15 K	107.15 ± 1.6
293.15 K	82.19 ± 0.97
298.15 K	64.36 ± 0.62
303.15 K	51.39 ± 0.45
308.15 K	41.64 ± 0.4
313.15 K	34.26 ± 0.33
318.15 K	28.57 ± 0.27
323.15 K	24.1 ± 0.23
328.15 K	20.57 ± 0.2
333.15 K	17.71 ± 0.17
338.15 K	15.38 ± 0.15
343.15 K	13.47 ± 0.13
348.15 K	11.9 ± 0.11
353.15 K	10.56 ± 0.1
358.15 K	9.44 ± 0.091
363.15 K	8.484 ± 0.082

CCC[n+]1cccc(C)c1.O=S(=O)([N-]S(=O)(=O)C(F)(F)F)C(F)(F)F
Conditions	mass density [kg/m3]	viscosity [mPa·s]
278.15 K	1467.1 ± 1.9	159.86 ± 10
283.15 K	1462.3 ± 1.9	117.81 ± 5.5
288.15 K	1457.5 ± 1.8	89.22 ± 2.9
293.15 K	1452.8 ± 1.8	69.11 ± 1.3
298.15 K	1447.5 ± 1.8	54.94 ± 0.55
303.15 K	1442.8 ± 1.8	44.22 ± 0.64
308.15 K	1438.1 ± 1.8	36.15 ± 0.53
313.15 K	1433.4 ± 1.8	29.98 ± 0.44
318.15 K	1428.8 ± 1.8	25.2 ± 0.37
323.15 K	1424.1 ± 1.8	21.43 ± 0.32
328.15 K	1419.5 ± 1.8	18.41 ± 0.27
333.15 K	1414.9 ± 1.8	15.97 ± 0.24
338.15 K	1410.3 ± 1.7	13.97 ± 0.21
343.15 K	1405.7 ± 1.7	12.31 ± 0.19
348.15 K	1401.1 ± 1.7	10.93 ± 0.17
353.15 K	1396.6 ± 1.7	9.769 ± 0.15
358.15 K	1392.1 ± 1.7	8.782 ± 0.14
363.15 K	1387.7 ± 1.7	7.937 ± 0.12

CCCC[n+]1ccccc1.O=S(=O)([N-]S(=O)(=O)C(F)(F)F)C(F)(F)F [1-butylpyridinium bis[(trifluoromethyl)sulfonyl]imide]
Conditions	mass density [kg/m3]	viscosity [mPa·s]
278.15 K	1467.6 ± 1.9	181.81 ± 13
283.15 K	1462.8 ± 1.9	133.34 ± 7.1
288.15 K	1458.1 ± 1.8	100.65 ± 3.9
293.15 K	1453.4 ± 1.8	77.72 ± 1.9
298.15 K	1448.7 ± 1.8	61.25 ± 0.82
303.15 K	1444 ± 1.8	49.15 ± 0.72
308.15 K	1439.3 ± 1.8	40.09 ± 0.58
313.15 K	1434.6 ± 1.8	33.17 ± 0.49
318.15 K	1430 ± 1.8	27.81 ± 0.41
323.15 K	1425.4 ± 1.8	23.59 ± 0.35
328.15 K	1420.7 ± 1.8	20.23 ± 0.3
333.15 K	1416.1 ± 1.8	17.51 ± 0.26
338.15 K	1411.6 ± 1.7	15.28 ± 0.23
343.15 K	1407 ± 1.7	13.44 ± 0.2
348.15 K	1402.5 ± 1.7	11.91 ± 0.18
353.15 K	1398 ± 1.7	10.62 ± 0.16
358.15 K	1393.5 ± 1.7	9.528 ± 0.15
363.15 K	1389 ± 1.7	8.594 ± 0.13

CCCCCC[n+]1ccccc1.O=S(=O)([N-]S(=O)(=O)C(F)(F)F)C(F)(F)F [1-hexylpyridinium bis(trifluromethylsulfonyl)imide]
Conditions	mass density [kg/m3]	viscosity [mPa·s]
278.15 K	1412.5 ± 1.7	322.08 ± 32
283.15 K	1407.8 ± 1.7	229.05 ± 19
288.15 K	1403.2 ± 1.7	167.56 ± 11
293.15 K	1398.7 ± 1.7	125.56 ± 6.3
298.15 K	1394.2 ± 1.7	96.21 ± 3.5
303.15 K	1389.7 ± 1.7	75.22 ± 1.7
308.15 K	1385.2 ± 1.7	59.86 ± 0.75
313.15 K	1380.7 ± 1.7	48.42 ± 0.7
318.15 K	1376.3 ± 1.7	39.74 ± 0.58
323.15 K	1371.8 ± 1.7	33.04 ± 0.48
328.15 K	1367.3 ± 1.7	27.79 ± 0.41
333.15 K	1362.9 ± 1.6	23.64 ± 0.35
338.15 K	1358.5 ± 1.6	20.3 ± 0.3
343.15 K	1354 ± 1.6	17.58 ± 0.26
348.15 K	1349.6 ± 1.6	15.35 ± 0.23
353.15 K	1345.3 ± 1.6	13.51 ± 0.2
358.15 K	1340.9 ± 1.6	11.96 ± 0.18
363.15 K	1336.6 ± 1.6	10.66 ± 0.16

CCCCCCCC[n+]1cccc(C)c1 [1-octyl-3-methylpyridinium]
Conditions	mass density [kg/m3]	viscosity [mPa·s]
278.15 K	1347.2 ± 1.6	398.72 ± 45
283.15 K	1342.7 ± 1.6	281.38 ± 26
288.15 K	1338.2 ± 1.6	204.35 ± 16
293.15 K	1333.8 ± 1.6	151.98 ± 9.2
298.15 K	1329.5 ± 1.6	115.55 ± 5.3
303.15 K	1325.2 ± 1.6	89.6 ± 2.9
308.15 K	1320.9 ± 1.6	70.72 ± 1.4
313.15 K	1316.6 ± 1.5	56.77 ± 0.62
318.15 K	1312.3 ± 1.5	46.23 ± 0.67
323.15 K	1308 ± 1.5	38.14 ± 0.56
328.15 K	1303.7 ± 1.5	31.86 ± 0.47
333.15 K	1299.5 ± 1.5	26.91 ± 0.4
338.15 K	1295.2 ± 1.5	22.95 ± 0.34
343.15 K	1290.9 ± 1.5	19.77 ± 0.29
348.15 K	1286.7 ± 1.5	17.16 ± 0.26
353.15 K	1282.5 ± 1.5	15.02 ± 0.23
358.15 K	1278.3 ± 1.5	13.23 ± 0.2
363.15 K	1274.1 ± 1.5	11.74 ± 0.18
